What was measured:
[1] = target: 5-hydroxytryptamine receptor 2A (Homo sapiens, UniProt P28223); type: functional, cell-based
[2] = target: T1, Alpha-1A adrenergic receptor (Homo sapiens, UniProt P35348); type: functional, cell-based
T1 sequence (P35348 whole entry): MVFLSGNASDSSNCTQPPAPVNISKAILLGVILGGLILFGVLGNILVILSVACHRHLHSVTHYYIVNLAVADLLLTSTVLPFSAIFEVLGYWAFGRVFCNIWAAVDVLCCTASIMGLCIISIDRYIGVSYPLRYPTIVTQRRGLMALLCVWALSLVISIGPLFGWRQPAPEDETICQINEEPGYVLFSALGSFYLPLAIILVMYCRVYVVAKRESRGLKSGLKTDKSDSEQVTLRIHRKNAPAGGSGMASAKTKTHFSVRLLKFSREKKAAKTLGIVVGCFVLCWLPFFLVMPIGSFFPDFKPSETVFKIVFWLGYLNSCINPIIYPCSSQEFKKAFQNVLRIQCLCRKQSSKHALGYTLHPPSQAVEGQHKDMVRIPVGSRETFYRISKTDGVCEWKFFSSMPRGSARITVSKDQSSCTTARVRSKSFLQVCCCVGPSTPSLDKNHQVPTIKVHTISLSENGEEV

Cannabinoid receptor 1 = Cannabinoid receptor 1 (Homo sapiens, UniProt P21554); type: functional, cell-based
Sequence of Cannabinoid receptor 1 (P21554 whole entry): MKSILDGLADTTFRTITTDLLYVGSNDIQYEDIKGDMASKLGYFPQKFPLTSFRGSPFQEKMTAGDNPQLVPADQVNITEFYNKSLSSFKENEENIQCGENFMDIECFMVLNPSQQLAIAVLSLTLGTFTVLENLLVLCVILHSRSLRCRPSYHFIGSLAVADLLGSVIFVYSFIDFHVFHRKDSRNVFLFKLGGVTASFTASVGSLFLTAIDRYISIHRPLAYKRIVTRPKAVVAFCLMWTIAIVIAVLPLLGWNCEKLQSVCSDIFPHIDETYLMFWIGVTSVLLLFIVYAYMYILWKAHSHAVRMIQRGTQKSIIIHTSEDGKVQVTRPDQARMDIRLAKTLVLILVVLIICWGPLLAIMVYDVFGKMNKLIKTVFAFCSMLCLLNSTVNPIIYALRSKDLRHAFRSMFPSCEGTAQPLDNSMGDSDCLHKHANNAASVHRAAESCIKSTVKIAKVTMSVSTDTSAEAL

[3] = target: T2, 5-hydroxytryptamine receptor 1A (Homo sapiens, UniProt P08908); type: functional, cell-based
T2 sequence (P08908 whole entry): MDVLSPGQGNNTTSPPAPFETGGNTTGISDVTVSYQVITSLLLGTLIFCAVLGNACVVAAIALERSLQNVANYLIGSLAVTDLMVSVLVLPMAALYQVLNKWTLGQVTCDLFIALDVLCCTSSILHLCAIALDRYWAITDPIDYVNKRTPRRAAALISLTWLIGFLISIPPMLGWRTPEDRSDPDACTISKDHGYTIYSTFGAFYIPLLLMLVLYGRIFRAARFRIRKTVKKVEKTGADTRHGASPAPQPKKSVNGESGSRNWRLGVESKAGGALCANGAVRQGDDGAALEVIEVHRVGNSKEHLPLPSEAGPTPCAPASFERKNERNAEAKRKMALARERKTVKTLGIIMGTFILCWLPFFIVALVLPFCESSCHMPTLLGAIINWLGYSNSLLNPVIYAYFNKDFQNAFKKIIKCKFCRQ

[4] = target: Voltage-dependent L-type calcium channel subunit alpha-1C (Rattus norvegicus, UniProt P22002); type: functional
Sequence of Voltage-dependent L-type calcium channel subunit alpha-1C (P22002 whole entry): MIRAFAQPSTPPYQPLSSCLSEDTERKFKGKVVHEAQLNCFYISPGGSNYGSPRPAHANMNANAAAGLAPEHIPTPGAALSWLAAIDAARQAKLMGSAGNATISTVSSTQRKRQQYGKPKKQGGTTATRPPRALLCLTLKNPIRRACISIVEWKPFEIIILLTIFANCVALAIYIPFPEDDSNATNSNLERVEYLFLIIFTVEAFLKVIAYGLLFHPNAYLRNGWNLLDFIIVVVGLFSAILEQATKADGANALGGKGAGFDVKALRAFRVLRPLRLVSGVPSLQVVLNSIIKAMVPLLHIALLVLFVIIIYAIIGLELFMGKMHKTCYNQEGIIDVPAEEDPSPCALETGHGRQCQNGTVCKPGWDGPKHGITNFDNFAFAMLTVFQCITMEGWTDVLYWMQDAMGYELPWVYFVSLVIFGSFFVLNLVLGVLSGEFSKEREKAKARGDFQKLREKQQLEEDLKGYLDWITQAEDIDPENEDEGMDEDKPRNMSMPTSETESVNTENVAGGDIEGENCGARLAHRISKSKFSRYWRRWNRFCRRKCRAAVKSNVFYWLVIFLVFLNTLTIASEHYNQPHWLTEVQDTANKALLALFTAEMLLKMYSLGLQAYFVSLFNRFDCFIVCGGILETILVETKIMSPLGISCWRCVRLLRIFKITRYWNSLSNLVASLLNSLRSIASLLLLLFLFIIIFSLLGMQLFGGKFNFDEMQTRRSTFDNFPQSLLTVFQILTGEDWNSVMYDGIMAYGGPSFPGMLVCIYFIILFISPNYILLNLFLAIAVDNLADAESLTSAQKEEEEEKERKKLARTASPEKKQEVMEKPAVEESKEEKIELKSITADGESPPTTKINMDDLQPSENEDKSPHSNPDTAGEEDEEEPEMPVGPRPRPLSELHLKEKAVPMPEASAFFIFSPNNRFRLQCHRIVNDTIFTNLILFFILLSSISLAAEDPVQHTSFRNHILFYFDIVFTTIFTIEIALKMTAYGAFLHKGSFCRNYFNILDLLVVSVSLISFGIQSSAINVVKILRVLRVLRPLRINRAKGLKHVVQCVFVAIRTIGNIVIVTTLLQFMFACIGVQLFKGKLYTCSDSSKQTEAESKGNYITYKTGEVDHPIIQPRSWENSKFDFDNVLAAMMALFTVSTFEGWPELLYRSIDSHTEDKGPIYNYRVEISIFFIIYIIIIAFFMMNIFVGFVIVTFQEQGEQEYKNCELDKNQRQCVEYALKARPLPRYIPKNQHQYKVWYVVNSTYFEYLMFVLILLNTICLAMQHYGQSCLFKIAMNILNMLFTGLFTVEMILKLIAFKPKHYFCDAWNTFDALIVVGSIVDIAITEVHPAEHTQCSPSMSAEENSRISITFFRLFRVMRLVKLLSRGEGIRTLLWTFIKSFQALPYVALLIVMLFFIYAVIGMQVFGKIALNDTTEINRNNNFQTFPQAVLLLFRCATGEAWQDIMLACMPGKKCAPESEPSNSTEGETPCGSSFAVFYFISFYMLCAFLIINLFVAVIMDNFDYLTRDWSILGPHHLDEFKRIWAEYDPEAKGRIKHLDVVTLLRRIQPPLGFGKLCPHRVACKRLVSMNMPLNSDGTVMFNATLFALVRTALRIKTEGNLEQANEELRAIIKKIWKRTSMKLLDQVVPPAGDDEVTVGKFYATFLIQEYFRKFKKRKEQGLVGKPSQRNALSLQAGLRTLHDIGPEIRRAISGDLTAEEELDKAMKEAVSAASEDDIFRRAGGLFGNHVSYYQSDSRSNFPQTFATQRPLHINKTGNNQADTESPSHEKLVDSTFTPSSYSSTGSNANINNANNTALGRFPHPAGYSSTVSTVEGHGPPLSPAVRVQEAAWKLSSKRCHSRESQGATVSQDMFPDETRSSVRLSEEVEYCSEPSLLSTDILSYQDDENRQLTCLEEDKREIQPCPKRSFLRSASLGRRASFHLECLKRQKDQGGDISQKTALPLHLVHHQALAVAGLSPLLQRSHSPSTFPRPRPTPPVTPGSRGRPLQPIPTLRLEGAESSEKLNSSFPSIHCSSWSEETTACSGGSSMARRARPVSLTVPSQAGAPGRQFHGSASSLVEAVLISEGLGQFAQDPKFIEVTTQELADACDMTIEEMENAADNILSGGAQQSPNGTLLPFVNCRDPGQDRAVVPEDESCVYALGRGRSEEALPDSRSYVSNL

[5] = target: T3, Equilibrative nucleoside transporter 1 (Homo sapiens, UniProt Q99808)
T3 sequence (Q99808 whole entry): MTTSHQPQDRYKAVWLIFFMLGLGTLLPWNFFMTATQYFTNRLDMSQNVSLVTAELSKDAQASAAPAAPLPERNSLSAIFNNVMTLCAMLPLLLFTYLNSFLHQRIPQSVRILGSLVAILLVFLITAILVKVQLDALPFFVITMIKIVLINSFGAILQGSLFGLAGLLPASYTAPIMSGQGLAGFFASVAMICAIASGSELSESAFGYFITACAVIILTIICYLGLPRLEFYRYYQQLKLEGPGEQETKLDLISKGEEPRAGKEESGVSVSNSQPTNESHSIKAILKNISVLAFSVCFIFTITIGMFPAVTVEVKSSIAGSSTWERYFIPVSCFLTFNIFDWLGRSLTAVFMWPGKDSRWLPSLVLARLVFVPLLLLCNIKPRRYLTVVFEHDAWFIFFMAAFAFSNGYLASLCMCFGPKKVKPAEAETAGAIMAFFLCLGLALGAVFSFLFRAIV

Progesterone receptor = target: T4, Progesterone receptor (Homo sapiens, UniProt P06401); type: functional
T4 sequence (P06401 whole entry): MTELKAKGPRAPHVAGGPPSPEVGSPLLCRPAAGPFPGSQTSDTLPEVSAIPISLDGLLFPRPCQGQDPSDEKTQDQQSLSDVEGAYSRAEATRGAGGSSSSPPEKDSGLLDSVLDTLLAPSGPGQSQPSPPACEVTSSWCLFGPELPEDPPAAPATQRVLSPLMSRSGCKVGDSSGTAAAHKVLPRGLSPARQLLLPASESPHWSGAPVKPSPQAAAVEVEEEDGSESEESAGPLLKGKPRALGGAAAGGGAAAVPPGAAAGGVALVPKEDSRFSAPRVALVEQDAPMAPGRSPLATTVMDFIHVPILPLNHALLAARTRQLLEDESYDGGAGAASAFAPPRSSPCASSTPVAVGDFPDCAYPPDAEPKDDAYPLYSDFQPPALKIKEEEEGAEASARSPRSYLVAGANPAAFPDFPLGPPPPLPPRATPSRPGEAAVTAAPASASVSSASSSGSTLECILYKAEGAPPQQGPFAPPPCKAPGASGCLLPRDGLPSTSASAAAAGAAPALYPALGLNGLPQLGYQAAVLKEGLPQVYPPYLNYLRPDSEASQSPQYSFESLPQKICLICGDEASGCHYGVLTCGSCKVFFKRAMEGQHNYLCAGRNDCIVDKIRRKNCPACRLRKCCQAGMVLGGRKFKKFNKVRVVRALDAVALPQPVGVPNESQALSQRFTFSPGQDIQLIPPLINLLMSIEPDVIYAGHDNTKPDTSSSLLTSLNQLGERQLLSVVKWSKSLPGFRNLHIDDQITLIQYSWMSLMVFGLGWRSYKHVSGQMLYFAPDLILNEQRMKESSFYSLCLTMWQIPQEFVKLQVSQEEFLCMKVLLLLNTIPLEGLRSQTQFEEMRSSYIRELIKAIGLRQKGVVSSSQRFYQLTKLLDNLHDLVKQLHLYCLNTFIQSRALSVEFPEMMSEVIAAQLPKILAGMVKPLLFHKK

[6] = target: Sodium-dependent noradrenaline transporter (Homo sapiens, UniProt P23975)
Sequence of Sodium-dependent noradrenaline transporter (P23975 whole entry): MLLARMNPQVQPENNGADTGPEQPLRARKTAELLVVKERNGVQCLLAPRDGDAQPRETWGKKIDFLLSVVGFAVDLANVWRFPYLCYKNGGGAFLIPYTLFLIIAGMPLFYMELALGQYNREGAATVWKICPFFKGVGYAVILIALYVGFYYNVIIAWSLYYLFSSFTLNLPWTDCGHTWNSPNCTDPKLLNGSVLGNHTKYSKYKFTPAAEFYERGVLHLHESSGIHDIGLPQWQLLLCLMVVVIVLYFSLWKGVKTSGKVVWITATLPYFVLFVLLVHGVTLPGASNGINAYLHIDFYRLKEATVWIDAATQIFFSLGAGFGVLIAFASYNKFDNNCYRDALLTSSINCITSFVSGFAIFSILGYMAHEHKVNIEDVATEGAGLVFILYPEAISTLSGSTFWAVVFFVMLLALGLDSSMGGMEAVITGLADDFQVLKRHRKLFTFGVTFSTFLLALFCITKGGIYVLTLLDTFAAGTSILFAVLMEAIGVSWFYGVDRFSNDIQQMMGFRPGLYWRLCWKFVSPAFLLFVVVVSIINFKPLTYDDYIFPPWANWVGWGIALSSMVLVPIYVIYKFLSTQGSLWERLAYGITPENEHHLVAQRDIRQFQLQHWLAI

[7] = target: T5, Gastrin/cholecystokinin type B receptor (Homo sapiens, UniProt P32239)
T5 sequence (P32239 whole entry): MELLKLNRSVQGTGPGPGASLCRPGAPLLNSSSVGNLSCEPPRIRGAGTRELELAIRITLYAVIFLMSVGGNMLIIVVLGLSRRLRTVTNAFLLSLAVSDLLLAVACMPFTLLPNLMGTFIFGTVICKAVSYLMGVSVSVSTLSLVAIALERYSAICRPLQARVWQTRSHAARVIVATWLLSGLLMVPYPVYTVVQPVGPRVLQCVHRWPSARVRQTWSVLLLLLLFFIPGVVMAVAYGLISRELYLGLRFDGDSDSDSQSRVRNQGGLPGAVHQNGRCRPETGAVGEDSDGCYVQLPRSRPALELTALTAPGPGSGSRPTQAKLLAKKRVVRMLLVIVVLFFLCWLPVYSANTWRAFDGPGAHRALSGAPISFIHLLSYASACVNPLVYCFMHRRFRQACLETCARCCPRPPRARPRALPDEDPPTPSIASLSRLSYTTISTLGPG
Also: assay procedure not described here.

Sequence of 5-hydroxytryptamine receptor 2A (P28223 whole entry): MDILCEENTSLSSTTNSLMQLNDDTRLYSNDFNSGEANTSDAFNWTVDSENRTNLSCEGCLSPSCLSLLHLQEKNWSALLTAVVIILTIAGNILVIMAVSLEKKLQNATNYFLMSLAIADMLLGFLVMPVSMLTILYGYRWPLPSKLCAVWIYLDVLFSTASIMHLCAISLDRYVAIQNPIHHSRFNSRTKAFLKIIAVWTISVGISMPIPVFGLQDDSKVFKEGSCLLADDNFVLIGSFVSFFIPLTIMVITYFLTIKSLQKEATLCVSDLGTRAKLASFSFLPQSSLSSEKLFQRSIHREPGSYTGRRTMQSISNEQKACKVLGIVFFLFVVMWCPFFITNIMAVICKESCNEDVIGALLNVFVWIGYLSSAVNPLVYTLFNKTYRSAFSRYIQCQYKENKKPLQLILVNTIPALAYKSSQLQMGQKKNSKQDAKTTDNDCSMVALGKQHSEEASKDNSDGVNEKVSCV

Row | SMILES | AC50 [1] | AC50 [2] | AC50 (Cannabinoid receptor 1) | AC50 [3] | AC50 [4] | AC50 [5] | AC50 (Progesterone receptor) | AC50 [6] | AC50 [7]
1 | Oc1c(I)cc(Cl)c2cccnc12 [CLIOQUINOL] | > 30 µM | > 30 µM | > 30 µM | > 30 µM | – | – | – | – | –
2 | NS(=O)(=O)c1cc(C(=O)O)cc(N2CCCC2)c1Oc1ccccc1 [PIRETANIDE] | > 30 µM | – | > 30 µM | > 30 µM | > 30 µM | – | > 30 µM | > 30 µM | > 30 µM
3 | OCCN1CCN(CC/C=C2/c3ccccc3Sc3ccc(Cl)cc32)CC1 [ZUCLOPENTHIXOL] | > 10 µM | – | – | 6.4 µM | > 10 µM | > 30 µM | > 10 µM | 17.4 µM | –

Further lines, results first:

Row | AC50 [1] | AC50 [2] | AC50 (Cannabinoid receptor 1) | AC50 [3] | AC50 [4] | AC50 [5] | AC50 (Progesterone receptor) | AC50 [6] | AC50 [7] | SMILES
4 | > 30 µM | > 30 µM | > 30 µM | > 30 µM | > 30 µM | > 30 µM | > 30 µM | > 30 µM | > 30 µM | C[C@@H]1CCC[C@H](C)N1NC(=O)c1ccc(Cl)c(S(N)(=O)=O)c1 [CLOPAMIDE]
5 | > 30 µM | > 30 µM | > 30 µM | > 30 µM | 0.72 µM | > 30 µM | > 30 µM | > 30 µM | > 30 µM | O=C(O)c1cc(O)c2c3nc4ccccc4oc-3cc(=O)c2n1 [PIRENOXINE]
6 | > 30 µM | > 30 µM | > 30 µM | – | > 30 µM | > 30 µM | 9.4 µM | 26 µM | > 30 µM | CC(C)=CCOc1ccc(/C=C/C(=O)c2ccc(OCC=C(C)C)cc2OCC(=O)O)cc1 [SOFALCONE]
